Source: ChEMBL document CHEMBL5726056, “2-oxo-3,4-dihydroquinolin-6-yl sulphonamide CPDS and their use as plant growth regulators” (2019)
pIC50: −log10 of the molar value.

Columns and labels:
[1] = (§1) PP2C Activity Assay: HAB1 and PYL proteins were expressed and purified as described in Park et al. ((2009) Science 324(5930):1068-1071), with minor modifications. To obtain GST-HAB1, the HAB1 cDNA was cloned into pGex-2T. Expression was conducted in BL21[DE3]pLysS host cells. Transformed cells were pre-cultured overnight, transferred to LB medium and cultured at 30° C. to culture A600 of ¿0.5.The culture was then cooled on ice and MnCl2 added to 4 mM and IPTG added to 0.3 mM. After 16 hours incubation at 15° C., cells were harvested and recombinant proteins were purified on glutathione agarose as described in Park et al. To obtain 6×His-PYL receptor fusion proteins, expression constructs previously described by Okamoto et al. 2013, (PNAS 110(29): 12132-12137) were used. ABA receptors were expressed and purified as described above.For the values shown in Table B5, PP2C activity assays using recombinant receptors and PP2Cs were carried out as follows: purified proteins were pre-incubated in 160 μl assay buffer containing 100 mM Tris-HCl-pH7.9, 100 mM NaCl, 3 μg bovine serum albumin, 0.1% 2-mercaptoethanol, 1 mM MnCl2 with ABA or agonists (compounds of the present invention) for 30 minutes at room temperature. […]
[2] = as §1; remark: listed apart in the source

Molecule `CCN1C(=O)CC(C)c2cc(NS(=O)(=O)Cc3ccc(C4CC4)cc3)ccc21` (configuration not stated) has a pIC50 [1] of 6.70 and a pIC50 [2] of 7.00.
